# Results from patent US9040714B2 (MannKind Corporation, priority 2010, dated 2015).
# System: XBP-1 splicing in liver and kidney
# Experiment: XBP-1 splicing inhibition in livers and kidneys of mice after tunicamycin
# Assay type: in vivo, CB17 SCID mice
# Details: 1 mg/kg IP, relative to PBS treated mice
# Text: The preclinical validation strategy employs a set of animal models representing normal tissues under chemical stress and multiple myeloma xenography. The normal animal model is employed as a surrogate model where dose-related on-target activity of compounds can be confirmed in tissues sensitive to standard UPR inducing agents such as tunicamycin (Wu et al., Dev Cell. 2007 September; 13 (1d):351-64). […] Upon induction with tunicamycin, tissues induce active XBP-1 mRNA, splicing, and this activity is suppressed by IRE-1α inhibitors. This on-target ER stress animal model is a useful screening and early pharmacokinetic tool.
# CB17 SCID mice were treated with 1 mg/kg tunicamycin by intraperitoneal (IP) injection at time 0 (T=0). Two hours later, compound A formulated in 10% hydroxy beta propyl cyclo dextran HBPCD was administered by IP injection. Doses were 50 mg/kg, 25 mg/kg and 10 mg/kg (4 mice in each group). Mice were sacrificed two hours later (4 hours from T=0), and the designated organs were harvested (FIG. 3A).
# RT-PCR analysis was performed using murine-specific XBP-1 primers from total RNA harvested from specified organs. […] Each lane represents an individual mouse where RNA was harvested and RT-PCR was performed. Method of RNA extraction and RT-PCR analysis is described in Volkmann et al., J. Biol. Chem. 286, 12743-55, 2011. […]
substance,measurement,value
tunicamycin,induction of XBP-1 spliced (XBP-1s),induces XBP-1 spliced (XBP-1s)
